Data taken from US11236083B2, “Compounds and pharmaceutical compositions for modulating SGK activity, and methods thereof” (NEW ERA PHARMA, INC., priority 2016, dated 2022).
pIC50: −log10 of the molar value. Like-named read-outs stand apart in the source and are kept apart here.

What was measured:
Sgk1 = target: T1, Sgk1 (Homo sapiens, UniProt O00141); experiment: Enzyme based assay for SGK1 (biotinylated Akt Substrates-2 peptide, Eu3+ Cryptate/XL665 detection); assay type: biochemical
T1 sequence (O00141 1-431): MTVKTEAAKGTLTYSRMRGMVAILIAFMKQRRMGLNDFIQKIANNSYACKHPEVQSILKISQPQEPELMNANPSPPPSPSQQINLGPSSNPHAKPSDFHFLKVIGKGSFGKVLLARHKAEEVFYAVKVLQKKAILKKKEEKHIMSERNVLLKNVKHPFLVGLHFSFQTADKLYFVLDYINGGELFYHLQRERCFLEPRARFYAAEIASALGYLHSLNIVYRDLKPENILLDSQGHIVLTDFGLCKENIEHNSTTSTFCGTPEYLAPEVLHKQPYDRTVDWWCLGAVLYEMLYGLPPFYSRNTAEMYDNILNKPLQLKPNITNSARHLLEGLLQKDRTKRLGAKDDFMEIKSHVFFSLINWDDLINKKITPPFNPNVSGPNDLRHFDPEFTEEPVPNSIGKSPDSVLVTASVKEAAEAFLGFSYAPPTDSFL
Method: (§1) 1. Enzyme Based Assays for SGK1, SGK2, SGK3, and Akt1
(§2) The kinase enzymatic reaction is carried out with a biotinylated Akt Substrates-2 peptide substrate. The phosphorylated substrate is then detected using a specific anti-phospho peptide antibody which is coupled with Eu^3+ Cryptate and XL665 conjugated with streptavidin.
(§3) Exemplary Assay Conditions
(§4) • Enzyme: ˜0.1 nM • Substrate: 0.2 μM • ATP: 50 μM and 1 mM • Mg^2+: 10 mM • Reaction time: 60 min with 50 μM ATP and 30 min with 1 mM ATP • SA-XL to Biotin: 1:10
(§5) Detailed Steps • 1. prepare the enzyme and substrate solution with the buffer from Cisbio • 2. add the enzyme and substrate solution to the diluted compound plate • 3. transfer 5 μL of compound, enzyme, and substrate mixture to an 384-well assay plate • 4. add 5 μL ATP (with Mg^2+) solution to initiate the reaction • 5. after certain time, add 10 μL of stop solution containing SA-XL and specific antibody • 6. read the plate after 2 h incubation at rt • 7. process the data using prizm software (Exemplary results are shown in FIG. 1.) 2. PK Studies Protocol

Sgk2 = target: T2, Sgk2 (Homo sapiens, UniProt Q9HBY8); experiment: Enzyme based assay for SGK2 (biotinylated Akt Substrates-2 peptide, Eu3+ Cryptate/XL665 detection); assay type: biochemical
T2 sequence (Q9HBY8 1-367): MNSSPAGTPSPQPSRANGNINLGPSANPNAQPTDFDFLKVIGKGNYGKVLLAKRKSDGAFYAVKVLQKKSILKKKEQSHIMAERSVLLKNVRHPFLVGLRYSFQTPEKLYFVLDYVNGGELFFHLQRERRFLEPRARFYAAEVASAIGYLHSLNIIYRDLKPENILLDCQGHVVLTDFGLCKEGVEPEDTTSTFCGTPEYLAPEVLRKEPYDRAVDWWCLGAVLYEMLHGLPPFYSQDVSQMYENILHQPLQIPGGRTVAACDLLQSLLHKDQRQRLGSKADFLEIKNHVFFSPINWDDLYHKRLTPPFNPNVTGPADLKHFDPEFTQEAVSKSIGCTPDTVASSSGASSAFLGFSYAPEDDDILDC
Method: as §1, §2, §3, §4, §5

[1] = 50 μM ATP, read-out: Sgk1 (50 μM ATP)
[2] = 1 mM ATP, read-out: Sgk1 (1 mM ATP)
[3] = 50 μM ATP, read-out: Sgk2 (50 μM ATP)
[4] = 1 mM ATP, read-out: Sgk2 (1 mM ATP)

SMILES	pIC50 (Sgk1; [1])	pIC50 (Sgk1; [2])	pIC50 (Sgk2; [3])	pIC50 (Sgk2; [4])
COc1ccc(Cl)c(S(=O)(=O)Nc2ccc(-c3cc(OCC4CNCCO4)c4cn[nH]c4c3)cc2)c1 (stereo not shown)	8.74	7.50	8.74	7.60
COc1ccc(F)c(S(=O)(=O)Nc2ccc(-c3cc(OCC4CNCCO4)c4c(N)n[nH]c4c3)cc2)c1 (stereo not shown)	8.64	8.41	8.70	8.42
COc1ccc(F)c(S(=O)(=O)Nc2ccc(-c3cc(OC)c4c(N)n[nH]c4n3)cc2)c1	7.77	6.95	8.52	7.45
COc1ccc(F)c(S(=O)(=O)Nc2ccc(-c3cc4[nH]ncc4c(OC)n3)cc2)c1	7.15		7.41	7.49
COc1ccc(F)c(S(=O)(=O)Nc2ccc(-c3cc(O[C@H]4CCOC4)c4c(N)n[nH]c4c3)cc2)c1	8.28	8.54	7.99	7.79
COc1ccc(F)c(S(=O)(=O)Nc2ccc(-c3cc(O[C@@H]4CCOC4)c4c(N)n[nH]c4c3)cc2)c1	8.26	8.82	8.34	8.03
COc1ccc(F)c(S(=O)(=O)Nc2ccc(-c3cc(OCC(C)(C)O)c4c(N)n[nH]c4c3)cc2)c1	7.44		7.42	7.41
COc1ccc(F)c(S(=O)(=O)Nc2ccc(-c3cc4c5c(n[nH]c5c3)NC(=O)CO4)cc2)c1	7.51	6.01	7.61	6.65
COCCOc1cc(-c2ccc(NS(=O)(=O)c3cc(OC)ccc3F)cc2)nc2[nH]nc(N)c12	7.54	7.98	8.02	7.16
CNCCOc1cc(-c2ccc(NS(=O)(=O)c3cc(OC)ccc3F)cc2)cc2[nH]nc(N)c12	7.75	7.95	8.22	7.41
COc1ccc(Cl)c(NS(=O)(=O)c2ccc(-c3ccc4c(N)n[nH]c4n3)cc2)c1	< 5.70		6.96	
COc1ccc(F)c(S(=O)(=O)Nc2cnc(-c3ccc4c(N)n[nH]c4c3)nc2)c1	7.85	7.21	8.43	8.12

Continued by rising pIC50 (Sgk1; [1]), values first:

pIC50 (Sgk1; [1])	pIC50 (Sgk1; [2])	pIC50 (Sgk2; [3])	pIC50 (Sgk2; [4])	SMILES
6.82	6.27	7.77	7.87	Nc1n[nH]c2cc(-c3ccc(NS(=O)(=O)c4cccc(Cl)c4Cl)cn3)ccc12
6.85	6.68	7.56	6.87	COc1ccc(F)c(S(=O)(=O)Nc2ccc(-c3cnc4c(N)n[nH]c4c3)nc2)c1
7.03	6.84	7.50	6.57	COc1ccc(F)c(S(=O)(=O)Nc2ccc(-c3ccc4cn[nH]c4c3)nc2)c1
7.37	7.23	7.19	6.72	COc1ccc(F)c(S(=O)(=O)Nc2ccc(-c3cc(OC(C)C)c4c(N)n[nH]c4c3)cc2)c1
7.57	7.70	8.04	6.98	COc1ccc(F)c(S(=O)(=O)Nc2ccc(-c3cc(OCCN(C)C)c4c(N)n[nH]c4c3)cc2)c1
7.67	7.30	8.08	7.15	COc1ccc(F)c(S(=O)(=O)Nc2ccc(-c3cc(C)c4c(N)n[nH]c4c3)cc2)c1
7.75	7.56	8.27	8.40	COc1ccc(F)c(S(=O)(=O)Nc2cnc(-c3cc(OC)c4c(N)n[nH]c4c3)nc2)c1
7.92		8.23		Cc1n[nH]c2nc(-c3ccc(NS(=O)(=O)c4cc(Cl)ccc4F)cc3)ccc12
8.07	8.42	8.36	8.19	COc1ccc(F)c(S(=O)(=O)Nc2ccc(-c3cc(OC4COC4)c4c(N)n[nH]c4c3)cc2)c1
8.09	8.38	8.28	8.46	COc1ccc(F)c(S(=O)(=O)Nc2ccc(-c3cc4[nH]ncc4c(NCC4CNCCO4)n3)cc2)c1 (stereo not shown)
